Here are results for ten compounds from patent US9162984B2, “Small-molecule modulators of melanin expression” (University of Rochester, priority 2007, dated 2015).

Common to all, as to assay type: cell-based, mice
The subject of series [1] is melan-a murine melanocyte cell line. Kind of series: Melanin induction screening in melan-a melanocytes. The settings on record: for activity for inducing melanin production: initial screening, 2.5 μM, 3 days, melanin normalized to cell count, vs DMSO. An excerpt: (§1) The melan-a murine melanocyte cell line was chosen for library screening. This is a non-tumorogenic line of melanocytes derived from the skin of C57Bl/6J mice (Bennett et al., Int. J. Cancer 39:414 (1987), which is hereby incorporated by reference in its entirety). These cells are ideal for phenotypic melanin screening as they proliferate quickly, are highly differentiated, and have been extensively studied (Snyder et al., Chemistry & Biology 12(4):477 (2005), which is hereby incorporated by reference in its entirety). Melanocytes were cultured in RPMI 1640 media supplemented with 10% FBS and 0.2 μM TPA, at 37° C. under 5% CO2, 95% atmosphere. For screening, 1×10^5 melan-a melanocytes were plated in 24 well tissue culture plates in a volume of 2 ml. After 18 hr incubation, 1 ml of media was removed and replaced by 1 ml media doped with small molecule, forskolin positive control, or DMSO vehicle control for 3 days. Initial screening was performed at a 2.5 μM dose (0.01% DMSO). Cells were harvested by trypsinization, washed 2× with PBS (pH 7.2), and counted by hemocytometry. Cell counts were used to assess treatment effects on cell proliferation. Melanin production was quantified by lysing cell pellets in 800 μl of 1 M NaOH for 2 hrs on ice, vigorously resuspending the lysed material by pipette, reading the absorbance at 490 nm of 200 μl aliquots of total lysate, and referencing to a standard synthetic melanin (Sigma) curve. The 75 member library was screened in triplicate. Melanin production was normalized to cell count (A490/million cells) and fold change against DMSO was calculated (FIG. 2).

The test system is the same in series [2]. Kind of series: Cell counts by hemocytometry to assess treatment effects on cell proliferation.
Excerpt: as §1, with “After 18 hr incubation, 1 ml of media was removed and replaced by 1 ml media doped with small molecule, forskolin positive control, or DMSO vehicle control for 3 days. Initial screening was performed at a 2.5 μM dose (0.01% DMSO).” left out, “Cell counts were used to assess treatment effects on cell proliferation.” left out, “The 75 member library was screened in triplicate.” left out

The subject of a further series is melan-a melanocytes. Kind of series: Melanocyte dendricity by hematoxylin staining. The settings on record: 2.5 μM, 72 hours; untreated 36%. The protocol:
Melanocytes are highly dendritic cells, and dendricity has been correlated with melanin production (Kosano et al., Biochim. Biophys. Acta 1499:11 (2000); Scott et al., J. Invest. Dermatol. 126:855 (2006), which are hereby incorporated by reference in their entirety). Dendricity was assessed by histochemical hematoxylin staining of melan-a melanocytes with and without 2.5 μM A7 treatment. 1×10^4 melan-a melanocytes were cultured onto vitrogen coated cover slips and treated with 2.5 μM A7 or vehicle control for 72 hours. Cells were fixed in 3.7% formalin/PBS, stained with hematoxylin, and imaged. Dendrites per cell were manually quantitated, and the percentage of cells with greater than 2 dendrites was calculated.

Series [3] has as its system Tyrosinase. Briefly: Tyrosinase activity assay (tritiated water from L-tyrosine-3,5-[3H]) in lysates of treated melanocytes. The settings on record: 2.5 μM, 3 days; to a lesser degree than forskolin positive control. The text has this:
To further understand the mode of action for A7, tyrosinase activity was quantitated. Tyrosinase functions to hydroxylate tyrosine to dopaquinone and L-DOPA in the first step of melanin production (Ito, Pigment Cell Res. 16:230 (2003), which is hereby incorporated by reference in its entirety). As such, increased tyrosinase activity leads to increased melanin production. Tyrosinase activity can be measured by monitoring the production of tritiated water upon the hydroxylation of L-tyrosine-3,5-[^3H] to L-DOPA (Pomerantz, J. Biol. Chem. 241(1):161 (1966); Park et al., J. Biol. Chem. 268:11742 (1993), which are hereby incorporated by reference in their entirety).
Similarly to library screening, in quadruplet, melanocytes were cultured with and without 2.5 μM small molecule treatment for 3 days. Resulting cell pellets were lysed in 75 μl of 80 mM K2PO4, 1% CHAPS, 2 mM PMSF, and PICO2 protease inhibitor cocktail (CalBioChem) for 2 hours on ice. Lysates were then pelleted (10 minutes, 4° C., 10,000 rpm) and protein concentration was determined by Bradford assay. […] Aliqouts of 1.0 ml of the tritiated water containing supernatant were transferred to scintillation vials containing 5.0 ml scintillation fluid, and ^3H levels were counted. […]

The subject of series [4] is Tyrosinase. Kind of series: Western blot analysis of cellular tyrosinase levels. To be noted: treated melanocytes.

SMILES strings stand for the structures.

As to `O=C(NCc1ccco1)c1ccco1` [Compound C1, N-((furan-2-yl)methyl)furan-2-carboxamide], in series [1], the “activity for inducing melanin production” value is listed as “some activity”.

With `O=C(NCCc1ccc(F)cc1)c1ccco1` [Compound C5, N-(4-fluorophenethyl)furan-2-carboxamide], the “activity for inducing melanin production” value in series [1] is listed as “some activity”.

On to `CC1(C)CCCC(C)(C)N1C(=O)c1ccco1` [Compound C10, (furan-2-yl)(2,2,6,6-tetramethylpiperidin-1-yl)methanone], for which, in series [1], the “activity for inducing melanin production” value is on record as “some activity”.

Consider `Cc1cc(NC(=O)c2c(F)c(F)c(F)c(F)c2F)no1` [Compound D12, 2,3,4,5,6-pentafluoro-N-(5-methylisoxazol-3-yl)benzamide], for which, in series [1], the “activity for inducing melanin production” value is on record as “some activity”.

For `O=C(c1ccc2c(c1)OCO2)N1CCN(c2ccc(F)cc2)CC1` [Compound E4, (benzo[d][1,3]dioxol-5-yl)(4-(4-fluorophenyl)piperazin-1-yl)methanone], the “activity for inducing melanin production” value in series [1] is listed as “some activity”.

With `CCc1nc2ccccc2cc1C(=O)NCCc1cccc(F)c1` [Compound A7, N-(3-fluorophenethyl)-2-ethylquinoline-3-carboxamide], the “concentration giving the optimal melanogenic response” value in series [1] (dose response, melanin quantity normalized to DMSO) came to 2.5 µM. The “activity for inducing melanin production” value in series [1] is listed as “some activity”. Besides, the “ranking of melanin induction among hits” value in series [1] (subsequent analysis of library hits) was “most active hit”. The “effect on cell proliferation in dose response” value in series [2] (concentrations up to 5 μM) is “no significant effect on cell proliferation”. In addition, the “cytotoxic effects in cell culture” value in series [2] (melanocytes in culture) is on record as “does not exhibit cytotoxic effects”. In addition, the “percentage of cells with greater than 2 dendrites” value with melan-a melanocytes worked out at 69%. Further, in the series on Tyrosinase [3], the “tyrosinase activity in melanocyte culture” value was “increases tyrosinase activity”. In addition, the “cellular levels of tyrosinase” value in the series on Tyrosinase [4] is listed as “not altered”.

With `CC1(C)CCCC(C)(C)N1C(=O)c1c(F)c(F)c(F)c(F)c1F` [Compound D10, (2,2,6,6-tetramethylpiperidin-1-yl)(perfluorophenyl)methanone], the “activity for inducing melanin production” value in series [1] is recorded as “some activity”.

Regarding `CCCCNC(=O)c1ccco1` [Compound C2, N-butylfuran-2-carboxamide], the “activity for inducing melanin production” value in series [1] is “some activity”.

Regarding `CCc1nc2ccccc2cc1C(=O)NCCc1ccc(F)cc1` [Compound A5, N-(4-fluorophenethyl)-2-ethylquinoline-3-carboxamide], in series [1], the “activity for inducing melanin production” value is “some activity”.

With `O=C(NCCc1cccc(F)c1)c1ccco1` [Compound C7, N-(3-fluorophenethyl)furan-2-carboxamide], the “activity for inducing melanin production” value in series [1] is reported as “some activity”.
